Source: patent US8476197B2, “Aminopropenoates as fungicides” (priority 2009, dated 2013)
Where two headings read alike, the source gives them in different places. Marks after values point to notes of the source that are not given here.

SMILES | Log P (pH 2.7) | Log P (pH 2.3) | Log P (pH 7.5)
COC(=O)C(C#N)=C(NC(C)C(C)C)c1cn(C)nc1C(F)F (stereo not shown) [Compound 938] | 2.8^[a] |  | 
CCOC(=O)C(C#N)=C(NC(C)C(C)C)c1cn(C)nc1C(F)(F)F (stereo not shown) [Compound 939] | 3.64^[a] |  | 
CCOC(=O)C(C#N)=C(NC(C)C(C)C)c1conc1C (stereo not shown) [Compound 940] | 3.15^[a] |  | 
COC(=O)C(C#N)=C(NC(C)C(C)C)c1cccnc1Br (stereo not shown) [Compound 942] |  | 3.02 | 2.88
CCOC(=O)C(C#N)=C(NC(C)C(C)C)c1sccc1C(F)(F)F (stereo not shown) [Compound 944] | 4.21^[a] |  | 
CC(C)OC(=O)C(C#N)=C(NC(C)C(C)C)c1cccnc1Cl (stereo not shown) [Compound 946] |  |  | 3.69
COC(=O)C(C#N)=C(NC(C)C(C)C)c1sc(C)nc1C(F)(F)F (stereo not shown) [Compound 948] | 3.63^[a] |  | 
CCOC(=O)C(C#N)=C(NC(C)C(C)C)c1sc(C)nc1C(F)(F)F (stereo not shown) [Compound 949] | 3.95^[a] |  | 
CCOC(=O)C(C#N)=C(NC(C)C(C)C)c1ccc(C)nc1Cl (stereo not shown) [Compound 950] |  |  | 3.63
CCOC(=O)C(C#N)=C(NC(C)C(C)C)c1cccnc1Cl (stereo not shown) [Compound 952] | 3.37 |  | 3.33
CCOC(=O)C(C#N)=C(NC(C)C(C)C)c1cccnc1C (stereo not shown) [Compound 953] |  | 2.63 | 2.89
C=CCOC(=O)C(C#N)=C(NC(C)C(C)C)c1cccnc1Cl (stereo not shown) [Compound 955] | 3.55 |  | 3.49
CC(C)C(C)NC(=C(C#N)C(=O)O)c1cccnc1Cl (stereo not shown) [Compound 956] | 2.2^[a] |  | 
CCNC(=O)C(C#N)=C(NC(C)C(C)C)c1cccnc1Cl (stereo not shown) [Compound 958] | 2.94 |  | 
CONC(=O)C(C#N)=C(NC(C)C(C)C)c1cccnc1Cl (stereo not shown) [Compound 960] |  | 2.31 | 2.26
CCOC(=O)C(C#N)=C(NC(C)C(C)C)c1cccnc1OC (stereo not shown) [Compound 961] |  | 3.52^[c]; 3.52^[b] | 3.52^[c]; 3.52^[b]
C=CCOC(=O)C(C#N)=C(NC(C)C(C)C)c1sccc1Br (stereo not shown) [Compound 962] | 4.34^[a] |  | 
CC(C)C(C)NC(=C(C#N)C(=O)O)c1sccc1Br (stereo not shown) [Compound 964] | 2.74^[a] |  | 
CCOC(=O)C(C#N)=C(NC(C)C(C)C)c1cccnc1C(F)(F)F (stereo not shown) [Compound 970] | 3.62^[a] |  | 
C=Cc1nn(C)cc1C(NC(C)C(C)C)=C(C#N)C(=O)OCC (stereo not shown) [Compound 971] | 3.06^[a] |  | 
CCOC(=O)C(C#N)=C(NC(C)C(C)C)c1cccnc1-c1ccc(Cl)cc1 (stereo not shown) [Compound 974] |  | 4.09 | 4.08

SMILES | Log P (pH 2.7) | Log P (pH 2.3) | Log P (pH 7.5)
CCOC(=O)C(C#N)=C(NC(C)C(C)C)c1cccnc1-c1cc(Cl)cc(Cl)c1 (stereo not shown) [Compound 975] |  | 4.68 | 4.67
C=Cc1ncccc1C(NC(C)C(C)C)=C(C#N)C(=O)OCC (stereo not shown) [Compound 976] |  | 3.24 | 3.26
CCOC(=O)C(C#N)=C(NC(C)C(C)C)c1ccncc1Cl (stereo not shown) [Compound 978] | 3.29^[a] |  | 
CCOC(=O)C(C#N)=C(NC(C)C(C)C)c1cccnc1C(C)=O (stereo not shown) [Compound 980] |  | 3.11 | 3.08
CCOC(=O)C(C#N)=C(NC(C)C(C)C)c1cccnc1C(F)F (stereo not shown) [Compound 981] | 3.15^[a] |  | 
CCOC(=O)C(C#N)=C(NC(C)C(C)C)c1cnccc1C(F)(F)F (stereo not shown) [Compound 982] | 3.5^[a] |  | 
CCOC(=O)C(C#N)=C(NC(C)C(C)C)c1cccnc1Cl (stereo not shown) [Compound 984] | 3.33 | 3.22 | 3.22
CCOC(=O)C(C#N)=C(NC(C)C(C)C)c1cccnc1C(C)=NO (stereo not shown) [Compound 985] |  | 2.69 | 2.67
CCOC(=O)C(C#N)=C(NC(C)C(C)C)c1ccc(Cl)nc1Cl (stereo not shown) [Compound 986] |  | 3.85^[c]; 3.85^[b] | 3.85^[c]; 3.85^[b]
CCCNC(=O)C(C#N)=C(NC(C)C(C)C)c1cccnc1Cl (stereo not shown) [Compound 988] |  | 3.24 | 3.22
CNC(=O)C(C#N)=C(NC(C)C(C)C)c1cccnc1Cl (stereo not shown) [Compound 989] |  | 2.41^[c]; 2.41^[b] | 2.41^[c]; 2.41^[b]
CC(C)C(C)NC(=C(C#N)C(=O)On1nnc2ccccc21)c1cccnc1Cl (stereo not shown) [Compound 990] |  | 3.22 | 3.21
C#CCNC(=O)C(C#N)=C(NC(C)C(C)C)c1cccnc1Cl (stereo not shown) [Compound 991] |  | 2.69 | 2.68
CC(C)C(C)NC(=C(C#N)C(=O)NCC(F)(F)F)c1cccnc1Cl (stereo not shown) [Compound 992] |  | 3.17 | 3.16
CC(C)C(C)NC(=C(C#N)C(N)=O)c1cccnc1Cl (stereo not shown) [Compound 993] |  | 1.97 | 1.96
CCOC(=O)C(C#N)=C(NC(C)C(C)C)c1ccncc1Br (stereo not shown) [Compound 996] | 3.33^[a] |  | 
CCOC(=O)C(C#N)=C(NC(C)C(C)C)c1ccncc1F (stereo not shown) [Compound 997] | 3.08^[a] |  | 
C=CCOC(=O)C(C#N)=C(NC(C)C(C)C)c1cn(C)nc1C(F)F (stereo not shown) [Compound 998] | 3.31^[a] |  | 
CCOC(=O)C(C#N)=C(NC(C)C(C)C)c1c(C(F)(F)F)nn(C)c1F (stereo not shown) [Compound 999] | 3.93^[a] |  | 
CCOC(=O)C(C#N)=C(NC(C)C(C)C)c1cn(C)nc1C(F)F (stereo not shown) [Compound 1003] | 3.15^[a] |  | 

Now from value to molecule, other results behind:

Log P (pH 2.7) | SMILES | Log P (pH 2.3) | Log P (pH 7.5)
3.19^[a] | CCOC(=O)C(C#N)=C(NC(C)C(C)C)c1c(C)nn(C)c1F (stereo not shown) [Compound 936] |  | 
4.39^[a] | CCOC(=O)C(C#N)=C(NC(C)C(C)C)c1nsc(Cl)c1Cl (stereo not shown) [Compound 937] |  | 
4.12^[a] | CCOC(=O)C(C#N)=C(NC(C)C(C)C)c1sccc1Br (stereo not shown) [Compound 941] |  | 
3.67^[a] | CCOC(=O)C(C#N)=C(NC(C)C(C)C)c1c(C)nn(C)c1Cl (stereo not shown) [Compound 943] |  | 
4.1^[a] | CCOC(=O)C(C#N)=C(NC(C)C(C)C)c1ccsc1Br (stereo not shown) [Compound 945] |  | 
3.99^[a] | CCOC(=O)C(C#N)=C(NC(C)C(C)C)c1cc(C)oc1C (stereo not shown) [Compound 947] |  | 
4.08^[a] | CCOC(=O)C(C#N)=C(NC(C)C(C)C)c1sccc1Cl (stereo not shown) [Compound 951] |  | 
3.63^[a] | CCOC(=O)C(C#N)=C(NC(C)C(C)C)c1c(C(F)F)nn(C)c1Cl (stereo not shown) [Compound 954] |  | 
4.72^[a] | CCOC(=O)C(C#N)=C(NC(C)C(C)C)c1cc(Cl)sc1Cl (stereo not shown) [Compound 965] |  | 
4.06^[a] | CCOC(=O)C(C#N)=C(NC(C)C(C)C)c1nc(Cl)ccc1Cl (stereo not shown) [Compound 966] |  | 
4.19^[a] | CCOC(=O)C(C#N)=C(NC(C)C(C)C)c1ncc(Cl)cc1Cl (stereo not shown) [Compound 967] |  | 
3.96^[a] | CCOC(=O)C(C#N)=C(NC(C)C(C)C)c1cnc(Cl)cc1Cl (stereo not shown) [Compound 968] |  | 
3.06^[a] | CCOC(=O)C(C#N)=C(NC(C)C(C)C)c1cn(C)nc1OC (stereo not shown) [Compound 969] |  | 
4.26^[a] | CCOC(=O)C(C#N)=C(NC(C)C(C)C)c1nc(SC)ncc1Br (stereo not shown) [Compound 972] |  | 
4.23^[a] | CCOC(=O)C(C#N)=C(NC(C)C(C)C)c1sc(Cl)nc1Cl (stereo not shown) [Compound 973] |  | 
3.96^[a] | CCOC(=O)C(C#N)=C(NC(C)C(C)C)c1cc(Cl)ncc1Cl (stereo not shown) [Compound 977] |  | 
4.26^[a] | CCOC(=O)C(C#N)=C(NC(C)C(C)C)c1cc(Cl)cc(Cl)n1 (stereo not shown) [Compound 983] |  | 
3.92^[a] | CCOC(=O)C(C#N)=C(NC(C)C(C)C)c1ccnc(Cl)c1Cl (stereo not shown) [Compound 994] |  | 
